Results on eleven molecules are retold here after PMC10257519 (European journal of medicinal chemistry, 2022).

Like-named read-outs stand apart in the source and are kept apart here.

In data set [1] the test system is human retinal pigment epithelial RPE cells. Nature of the data set: Cell viability assay on normal cells. Particulars: at a maximum concentration of 30 μM.
Data set [2] relates to NCI 60 cell lines. Nature of the data set: NCI 60 cell five-dose assay. In kind it is cell-based. The following applies: read-out: TGI (μM).
Data set [3] relates to HCT116 human colon cancer cells. Nature of the data set: Cell growth inhibition / viability assay.
The nature of data set [4]: S9 fraction metabolic stability assay. The format is in vitro ADME, human. Particulars: 0.02 mM substrate, NADPH, 37 °C, monitored over 2 h.
Data set [5] has as its system acetyl–H3 and pan acetyl–lysine. The data set is described as follows: Hyperacetylation assay by Western blot. The format is cell-based, human. The following applies: 5 and 10 μM. (In general: A western blot detects proteins with antibodies after separation by electrophoresis.)
Data set [6] has as its system PARP1 cleavage in HCT116 cells. Nature of the data set: Western blot analysis of PARP1 cleavage. The format is cell-based, human. The following applies: HCT116 cells treated for 24 h.
The conditions of data set [7]: reported earlier; cited from earlier work.
[8] abbreviates: Homo sapiens, HCT-116, read-out: IC50 ± SD (μM) (n = 3) on HCT116 cell line.

In the case of `COc1ccc(NC(=O)CCCCCCNC(=O)C(O)(O)C(F)(F)F)cc1` [Compound 55, N-(4-methoxyphenyl)-7-(3,3,3-trifluoro-2,2-dihydroxypropanamido)heptanamide], the “cell survival, RPE” value in data set [1] is given as “more than 50%”. As to `O=C(CCCCCCNC(=O)C(O)(O)C(F)(F)F)Nc1ncc(-c2ccccc2)s1` [Compound 58, N-(5-phenylthiazol-2-yl)-7-(3,3,3-trifluoro-2,2-dihydroxypropanamido)heptanamide], in data set [2], the IC (TGI) was found to be 17 µM. For orientation: IC50 means the concentration at which inhibition is half-maximal. Regarding `O=C(CCCCCCNC(=O)C(O)(O)C(F)(F)F)Nc1nc2ccc(Br)cc2o1` [Compound 80, N-(6-bromobenzo[d]oxazol-2-yl)-7-(3,3,3-trifluoro-2,2-dihydroxypropanamido)heptanamide], in data set [3] (setting [8]), the IC50 stood at 7.56 ± 0.73 µM.

As to `O=C(CCCCCCNC(=O)C(O)(O)C(F)(F)F)Nc1nccs1` [Compound 60, N-(thiazol-2-yl)-7-(3,3,3-trifluoro-2,2-dihydroxypropanamido) heptanamide], the “disappearance of the M+1 peak in S9 fraction” value in data set [4] is listed as “did not disappear over 2 h”. As for `COc1ccc(-c2cnc(NC(=O)CCCCCCNC(=O)C(O)(O)C(F)(F)F)s2)cc1` [Compound 84, N-(5-(4-methoxyphenyl)thiazol-2-yl)-7-(3,3,3-trifluoro-2,2-dihydroxypropanamido)heptanamide], in data set [5], the “levels of acetylated H3 (Western blot)” value is reported as “increased levels” and the “levels of pan-acetyl-lysine (Western blot)” value was “increased levels”. In data set [6], the “cleaved PARP1 (Western blot)” value is given as “Absence of PARP1 cleavage”.

With `O=C(CCCCCCNC(=O)C(O)(O)C(F)(F)F)Nc1ncc(-c2ccc(Br)cc2)s1` [Compound 85, N-(5-(4-bromophenyl)thiazol-2-yl)-7-(3,3,3-trifluoro-2,2-dihydroxypropanamido)heptanamide], the “cleaved PARP1 (Western blot)” value in data set [6] is on record as “Dose-dependent elevation”. For the molecule “N-phenyl-6-(3,3,3-trifluoro-2,2-dihydroxypropanamido)hexanamide [Compound 10b]”, in data set [3] (read-out: IC50 (μM) HCT116, effect of linker length, linker length n = 3–7), the IC50 stood at 54.4 ± 6.02 µM. Take `COc1cc(NC(=O)CCCCCCNC(=O)C(O)(O)C(F)(F)F)cc(OC)c1OC` [Compound 71, 7-(3,3,3-trifluoro-2,2-dihydroxypropanamido)-N-(3,4,5-trimethoxyphenyl)heptanamide]: the IC50 in data set [3] (setting [8]) is 3.45 ± 0.36 µM. Take `O=C(CCCCCCC(=O)C(F)(F)F)Nc1ccccc1` [Compound 91]: the half-life result in data set [7] is reported as “less than 30 min”. As to `OC(O)(c1c(F)c(F)c(-n2cc(-c3ccccc3)nn2)c(F)c1F)C(F)(F)F` [Compound 89], the “HCT116 IC50” value in data set [3] (zinc-binding group screening, maximum concentration of 100 μM) is “inactive”. Consider `COc1ccc2sc(NC(=O)CCCCCCNC(=O)C(O)(O)C(F)(F)F)nc2c1` [Compound 83, N-(5-methoxybenzo[d]thiazol-2-yl)-7-(3,3,3-trifluoro-2,2-dihydroxypropanamido)heptanamide], for which the “cleaved PARP1 (Western blot)” value in data set [6] is “Dose-dependent elevation”.
